Test results as given in article PMC2904697, “A Screen for Kinetochore-Microtubule Interaction Inhibitors Identifies Novel Antitubulin Compounds” (PLoS ONE, 2010).

System: recombinant CLIP-170^488 binding to taxol-stabilized MTs
Assay: CLIP-170^488 binding to taxol-stabilized MTs (specificity control)
Conditions: compound B at 50 µmol/l
Source text: Figure 2 Compound B prevents the recombinant Ndc80 kinetochore complex from binding to taxol-stabilized microtubules. Effect of compound B (50 µmol/l) on binding of the Ndc80^488 complex to rhodamine-labeled, taxol-stabilized MTs as assayed using inverted wide-field fluorescence microscopy. The scale bar represents 4 µm (A). Structure of compound B; 6-furan-2-yl-3-methyl-4-oxo-4,5,6,7-tetrahydro-1H-indole-2-carboxylic acid (tetrahydro-furan-2-yl)methyl ester (B). Measurement of the IC50 value of compound B using total internal reflection fluorescence microscopy. The scale bar represents 4 µm (C). Compound B (50 µmol/l) prevented MT-associating protein CLIP-170^488, used as a specificity control, from binding to taxol-stabilized MTs. The scale bar represents 4 µm (D). […] The scale bar represents 4 µm (E).
A compound inhibiting the Ndc80^488 complex-MT interaction could act either against the complex or against the MTs. To probe the specificity of compound B toward the Ndc80^488 complex, we examined its ability to inhibit MT binding of recombinant CLIP-170^488, a MT plus-end tracking protein.

`Cc1c(C(=O)OCC2CCCO2)[nH]c2c1C(=O)CC(c1ccco1)C2` (stereo not shown) [compound B, 6-furan-2-yl-3-methyl-4-oxo-4,5,6,7,-tetrahydro-1H-indole-2-carboxylic acid tetrahydro-furan-2-ylmethyl ester] was tested, and the “Effect on binding of CLIP-170^488 to taxol-stabilized MTs” value was “prevented”.
